The subject of this assay is DNA fragment of 450 mer. Put plainly: DNA alkylation experiment analysed by polyacrylamide gel electrophoresis. The assay is classed as biochemical. As for the experimental part: (1) An DNA alkylation experiment was conducted using the above-synthesized Ac-Im-Py-β-ala-CO-Du86.
(2) A similar experiment was conducted by using Im-Im-β-ala-Py-Py-β-ala-CO-Du86. In this case, it was clarified that two imidazole portions recognized guanine in a DNA to cause a sequence-specific DNA alkylation.
(3) A similar experiment was conducted by using Ac-Im-Py-Py-γ-butyl-Py-Py-β-ala-Du86. A pyrrole-imidazole polyamide portion of this compound has a hairpin structure, and one molecule of this compound can recognize both of double strands of a DNA. Though it is known that a Py-Py pair selectively recognizes AT or TA, a Im-Py pair selectively recognizes GC, and a Py-Im pair selectively recognizes CG when the hairpin compound is combined with a DNA in accordance with the Dervan's rule, this compound includes a new pair of β-alanine pair-Im for the molecular recognition. Therefore, a new molecular recognition rule can be discovered using this compound. Accordingly, a DNA alkylation experiment was conducted to confirm the possibility. Results of the experiment are shown in FIG. 3 (DNA: pUC18III 70 nM; Reagent Concentration: 10 nM to 500 nM, 5 samples; Reaction Conditions: sodium phosphate buffer solution (1.46 mM), 37° C., 8 hours).

Where [1] appears, read: DNA fragment of 450 mer, polyacrylamide gel electrophoresis (FIG. 1, FIG. 2).

In the case of `COC(=O)c1c(C)[nH]c2c1C13CC1CN(C(=O)CCNC(=O)c1cc(NC(=O)c4nc(NC(C)=O)cn4C)cn1C)C3=CC2=O` (stereo not drawn) [Ac-Im-Py-β-ala-CO-Du86], under setting [1], the “DNA sequence recognized and base alkylated (sequence-specific DNA alkylation)” value is “recognized 5′-TAAA-3′ and alkylated adenine of 3′-end”. Take `COC(=O)c1c(C)[nH]c2c1[C@]13C[C@H]1CN(C(=O)CCNC(=O)c1cc(NC(=O)c4cc(NC(=O)CCCNC(=O)c5cc(NC(=O)c6cc(NC(=O)c7cc(NC(C)=O)cn7C)cn6C)cn5C)cn4C)cn1C)C3=CC2=O` [Ac-Im-Py-Py-γ-butyl-Py-Py-β-ala-Du86, Ac-Im-Py-Py-γ-butyl-Py-Py-β-ala-CO-Du86]: the “DNA sequence recognized and base alkylated (sequence-specific DNA alkylation)” value (DNA: pUC18III 70 nM, reagent 10 nM to 500 nM, sodium phosphate buffer solution (1.46 mM), 37° C., 8 hours (FIG. 3)) is “recognizes 5′-(A/T)(A/T)(A/T)C(A/G)-3′ portion to selectively alkylates adenine of the 3′-end”. With Im-Im-β-ala-Py-Py-β-ala-CO-Du86, under setting [1], the “DNA sequence recognized and base alkylated (sequence-specific DNA alkylation)” value was “recognized 5′-GGAGAAA-3′ and alkylated adenine of 3′-end”.

Values taken from patent US7067622B2, “Method of the solid phase synthesis of pyrrole-imidazole polyamide” (Japan Science and Technology Agency, priority 2001, dated 2006).
